Laboratory results from patent US20170335402A1, “DOT1L INHIBITORS AND USES THEREOF” (Baylor College of Medicine, priority 2014, published 2017).
Entries after “also recorded” stand apart in the source; their conditions may differ.

Assays:
[1] = system: OCI AML3 subcutaneous tumors; test: Nude rat OCI-AML3 xenograft study, tumor volume; type: in vivo; details: 21 days
Description: (§1) In vivo studies were conducted. Human acute myeloid leukemia cells OCI-AML3 were implanted subcutaneously into the right flank of female athymic nude rats (Hsd:RH-Foxn1rnu, Harlan Laboratories, Inc.). EPZ-5676 was delivered by continuous IV infusion via a catheter surgically implanted in the femoral vein of each rat. Animals were separated into either an efficacy or PK/PD cohort. Both cohorts were dosed by continuous IV infusion with 35 or 70 mg/kg/day. A control group received continuous IV infusion of the vehicle, 5% hydroxypropyl-β-cyclodextrin (HPBCD) in saline. Efficacy was determined after 21 days of drug treatment followed by a 7 day drug holiday. Animals assessed for PK/PD were dosed for 14 days and euthanized following the completion of infusion. All rats were weighed and tumors calipered twice weekly until the end of study. At the completion of the study animals were euthanized by terminal cardiac puncture under isoflurane anesthesia. Euthanized rats were sampled for tumor tissue. Tumors were collected in an RNase-free environment, bisected, snap frozen in liquid nitrogen, pulverized and finally stored at (−80° C.).

[2] = system: H3K79me2; test: ELISA of H3K79me2 in OCI AML3 xenograft tumors; type: in vivo, nude rat
Description: as §1, with “Tumors were collected in an RNase-free environment, bisected, snap frozen in liquid nitrogen, pulverized and finally stored at (−80° C.).” left out
For isolation of histones from bone marrow, cells were lysed in 250 μL nuclear extraction buffer (10 mM Tris-HCl, 10 mM MgCl2, 25 mM KCl, 1% Triton X-100, 8.6% Sucrose, plus a Roche protease inhibitor tablet 1836145). […] Histones were quantified using the BCA protein assay (Pierce, 23225). […]

[3] = system: MEIS1 and HOXB3; test: qRT-PCR of MEIS1 and HOXB3 in OCI AML3 xenograft tumors; type: in vivo, nude rat; details: 21 days
Description: as §1
For the isolation of RNA, 10 mg of tumor powder was lysed in 600 μL RLT Lysis Buffer (Qiagen) and homogenized with a Qiashredder column (Qiagen, 79656) following the manufacturer's protocol. […] MEIS1 and HOXB3 mRNA levels were assessed and normalized to GAPDH by qRT-PCR.

[4] = system: OCI AML2 cells; test: Cell proliferation and viability assay (trypan blue exclusion); type: cell-based, human; details: OCI AML2; escalating doses, 10-14 days
Description: (§2) Patient AML cell lines were plated in media and treated with the DOT1L inhibitors SYC-522, EPZ004777 or DMSO control was added at the indicated concentrations. Cells counted, washed and re-plated in fresh compound at equal densities every 3-4 days for 12 days. Cell growth and viability were followed by serial cell counts and trypan blue exclusion staining.
(§3) Exponentially growing cells were plated, in triplicate, in 24-well plates at a density of 2×10^5/mL in a final volume of 1 mL. For dose dependent assays, cells were incubated in increasing concentrations of SYC522 up to 10 μM or EPZ004777 up to 24 μM or DMSO control. For time-dependent assays, cells were incubated in 3 μM EPZ004777 or DMSO control. Every 2-3 days media and compound was replaced and cells were split back to a density of 2×10^5/mL. At each re-plating viable cells number was determined by trypan blue exclusion. Total cell number is expressed as split-adjusted viable cells per mL.

[5] = system: MV4-11 cells; test: as above; type: cell-based, human; details: MV4-11 (MLL-rearranged); dose-dependent, FIG. 4
Description: as §2, §3

[6] = system: OCI AML3 cells; test: as above; type: cell-based, human; details: OCI AML3; escalating doses, 10-14 days
Description: as §2, §3

[7] = system: OCI AML2 cells; test: Cell differentiation analysis, CD14 flow cytometry; type: cell-based, human; details: dose dependent
Description: (§4) Cell differentiation analysis was performed by staining with fluorescently labeled marker for cell differentiation, CD14 followed by flow cytometry. Propidium iodide was added prior to flow cytometry analysis to exclude dead cells.
(§5) Cells were harvested at each re-plating of the cell proliferation assay described above then split for simultaneous analysis of apoptosis, cell cycle, and differentiation. Apoptosis was determined by Annexin V binding (AVB) flow cytometry assay. The harvested cells were re-suspended in 1×AVB buffer, stained with APC-conjugated Annexin V (BD), then analyzed by flow cytometry. For cell cycle analysis, cells were pelleted, washed in PBS with 0.5% bovine serum albumin, then fixed in 70% ice-cold methanol. The fixed cells were then incubated in PBS with 100 μg/mL RNAse (Invitrogen) for 15 minutes in a 37° C. water bath. Propidium iodide (PI) in PBS at a final concentration of 25 μg/mL was then added and the cells were analyzed by flow cytometry. For differentiation, cells were pelleted, and stained with APC-conjugated CD14 then washed and re-suspended in media containing PI to exclude dead cells. All analyses were performed using an LSR II flow cytometer (BD biosciences) and the data were analyzed using FlowJo (TreeStar, V8.8.7).

[8] = system: OCI AML3 cells; test: Cell differentiation analysis, CD14 flow cytometry; type: cell-based, human; details: dose dependent
Description: as §4, §5

[9] = system: H3K79me2 in OCI AML3 cells; test: Immunoblot analysis of cellular H3K79 methylation; type: cell-based, human
[10] = system: H3K79me2 in OCI AML2 cells; test: Immunoblot analysis of cellular H3K79 methylation; type: cell-based, human
[11] = system: OCI AML2 cells; test: Annexin V binding (AVB) flow cytometry apoptosis assay; type: cell-based, human; details: increasing concentrations
Description: (§6) For the Annexin V apoptosis assay, 1×10^6 SYC-522-, EPZ004777- or DMSO-treated cells were washed in PBS, resuspended in Ca/HEPES buffer (10 mM HEPES, pH7.4; 140 mM NaCl; 2.5 mM CaCl2) and incubated with Annexin V-APC (BD Pharmingen, San Jose, Calif.) for 30 min then analyzed by flow cytometry.
as §5

[12] = system: MV411 cells; test: as above; type: cell-based, human; details: MV4-11; dose-dependent, FIG. 4
Description: as §6, §5

[13] = system: OCI AML3 cells; test: as above; type: cell-based, human; details: increasing concentrations
Description: as §6, §5

[14] = system: DNMT3A mutant cells; test: HOX gene expression in DNMT3A mutant cells (FIG. 10); type: cell-based, human; details: FIG. 10, day 6 and day 10 of treatment
Description: RNA was extracted from OCI AML2 and OCI AML3 cells treated with 3 μM EPZ004777 or DMSO control using RNeasy RNA isolation kit (Qiagen) per manufacturer's protocol. RNA was quantified using Nanodrop instrument and 300-1000 ng (equal quantities for EPZ004777 treated and DMSO controls) of RNA were reverse transcribed using the SuperScript® III First-Strand Synthesis System (Invitrogen). Reverse transcription quantitative PCR was then performed in triplicate using predesigned TaqMan primer and probe sets for HOXA9 (Hs00365956_m1), MEIS1 (Hs01017441_m1), HOXB8 (Hs00256885_m1), HOXB3 (Hs01587922_m1), and GAPDH (Hs02758991_ml) (FAM-MGB; Applied Biosystems) for 30 cycles using an AbiPrism 7900HT (Applied Biosystems). Target gene numbers were normalized to the ribosomal RNA 18s (VIC-MGB; Applied Biosystems) and fold-change determined by the 2^−ΔΔCT equation.

[15] = 35 mg/kg/day continuous IV infusion
[16] = 70 mg/kg/day continuous IV infusion

Row | SMILES | tumor growth (tumor volume) [1, 15] | tumor growth (tumor volume) [1, 16] | H3K79me2 level [2, 15] | H3K79me2 level [2, 16] | expression of oncogenic genes including MEIS1 and HOXB3 in tumors [3, 15] | expression of oncogenic genes including MEIS1 and HOXB3 in tumors [3, 16] | cell growth / proliferation [4] | cell proliferation [5] | cell growth / proliferation [6] | terminal differentiation (CD14 staining) [7] | terminal differentiation (CD14 staining) [8] | cellular H3K79 methylation [9] | cellular H3K79 methylation [10] | induction of apoptosis (Annexin V binding) [11] | induction of apoptosis [12] | induction of apoptosis (Annexin V binding) [13] | oncogenic HOX gene expression [14]
1 | CC(C)N(C[C@H]1O[C@@H](n2cnc3c(N)ncnc32)[C@H](O)[C@@H]1O)[C@H]1C[C@@H](CCc2nc3cc(C(C)(C)C)ccc3[nH]2)C1 [EPZ-5676] | inhibited in a dose dependent fashion | inhibited in a dose dependent fashion reaching statistical significance | significant reduction of H3K79me2 | significant reduction of H3K79me2 | repression of oncogenic genes | repression of oncogenic genes |  |  |  |  |  |  |  |  |  |  | 
2 | CC(C)N(CCCNC(=O)Nc1ccc(C(C)(C)C)cc1)CC1OC(n2cnc3c(N)ncnc32)C(O)C1O (centres unmarked) [SYC-522] |  |  |  |  |  |  | decreased proliferation; also recorded: inhibited growth in a dose-dependent fashion | reduction of cell proliferation | decreased proliferation; also recorded: inhibited growth in a dose-dependent fashion | terminal differentiation | terminal differentiation | inhibit H3K79 methylation in a time-dependent manner; also recorded: inhibited in a dose- and time-dependent fashion | inhibit H3K79 methylation in a time-dependent manner; also recorded: inhibited in a dose- and time-dependent fashion | induction of apoptosis | induction of apoptosis | induction of apoptosis | repressed in a time-dependent fashion
